According to EP0433084A2, “Use of aromatese inhibitors for the reversal of female sexual phenotype in poultry” (MERCK & CO. INC., priority 1989, dated 1991):
Counter-ions that a name gives are not always drawn. Like-named read-outs stand apart in the source and are kept apart here.

Assays:
female Mullerian ducts = conditions: chick embryo; Huston et al., Gen. Comp. Endocrinol. 57: 88-102 (1985); cited from earlier work
[1] = tested on: Line 139 White Leghorn Chickens; conditions: for Female / Male / Und. (Undetermined): gonadal sex type at day 14, number of embryos; for Survived day 14: number of embryos
Protocol: (§1) The inhibitor was dissolved in saline at concentrations ranging form 1 mg/ml to 100 mg/ml and the injection volume ranged from 20 µl to 100 µl producing doses of 20 µg to 10 mg. Injections were made with a 23 G x 1 inch needle. A light source was used to orient the eggs and the injection is made under the air sac into the egg white surrounding the developing embryo. The hole was sealed with Scotch tape and the eggs were placed in a humidified, rocking incubator. At day fourteen of incubation, the embryos were removed form their shells and dissected to observe development of the gonads.

[2] = tested on: Line 67 White Leghorn embryos; conditions: in vivo
Protocol: as §1

in vivo = conditions: chicken, embryos in ovo, %Hatched
Protocol: as §1
(§2) The procedures are the same as described above.

[3] = tested on: Abor Acre x Abor Acre Hybrid Broiler Chickens; experiment: in vivo
Protocol: as §1, §2

turkey embryos = tested on: turkey embryos
Protocol: A light source was used to orient the eggs and the injection is made under the air sac into the egg white surrounding the developing embryo. The hole was sealed with Scotch tape and the eggs were placed in a humidified, rocking incubator. The birds were allowed to hatch and the phenotypic and genotypic sex determined.

[4] = tested on: autosexing strains of chickens
Protocol: (§3) To more easily monitor changes in development as a function of age according to genetic sex two different autosexing strains of chickens were treated as above. All chickens were allowed to reach sexual maturity. […] One of the three was killed after 24 weeks and the remaining two (tag numbers 1977 and 1981) were killed after 31 weeks. Prior to killing blood was taken from each animal and used to determine sex steroid levels. At the time of killing the gonads were removed and fixed for histology in Bouin's fixative.
The right gonad and oviduct of the normal female begins to regress during embryogenesis and at maturity females have a single ovary and oviduct. The remaining left ovary consists of a series of follicles staged to mature at daily intervals.

[5] = tested on: hybrids used in Example 3; conditions: for Estradiol / Testosterone: serum
Protocol: as §3
Estradiol and testosterone levels were determined in serum samples using commercial RIA assay kits which are well known in the art.

[6] = tested on: gonads from control males and treated females; conditions: in vivo
Protocol: Histological examination of gonads from control males and treated females at 31 weeks of age was carried out on tissue fixed in Bouin's solution prior to embedding in paraffin. Sections were stained with hematoxylin and eosin.

[7] = tested on: F₁ Hybrids of Rhode Island Males Crossed With Plymouth Barred Rock Females; experiment: Gonadal sex type of 14 day embryos after in ovo injection; assay type: in vivo, chicken
Protocol: Fertilized chicken embryos were injected on day 5 of incubation with the aromatase inhibitor 1,4,6-androstatriene-3,17-dione. The inhibitor was dissolved in 1,2-propane-diol at a concentration of 20 mg/ml and the injection volume was 100 µl producing a dose of 2 mg.

[8] = Experiment 1, 20 µg injected on day 5
[9] = Experiment 1, 100 µg injected on day 5
[10] = Experiment 1, 2 mg injected on day 5
[11] = Experiment 1, 10 mg injected on day 5, none survived
[12] = Experiment 2, 100 µg injected on day 4
[13] = Experiment 2, 1 mg injected on day 4
[14] = Experiment 3, 100 µg injected on day 5
[15] = Experiment 3, 1 mg injected on day 5
[16] = animal 1977, treated genetic female, phenotypic male, 31 weeks
[17] = animal 1978, treated genetic male
[18] = animal 1981, treated genetic female, phenotypic male, 31 weeks
[19] = gonadal sex type at day 14, number of embryos, 2.0 mg injected on day 5

Q: With `CC/C(=C(\c1ccccc1)c1ccc(OCCN(C)C)cc1)c1ccccc1` [tamoxifen] as the compound, how does the “effect on the female Mullerian ducts” value (female Mullerian ducts) read?
A: little effect

Q: Which Female [1, 8] does the source give for `N#Cc1ccc(C2CCCc3cncn32)cc1` (racemic) [± 5-(p-cyanophenyl)-5,6,7,8-tetrahydroimidazo [1,5-α] pyridine hydrochloride] here?
A: 2

Q: And the Male [1, 8]?
A: 0

Q: What about the “Und. (Undetermined)” value [1, 8] of the same compound?
A: 0

Q: And the Female [1, 9]?
A: 0

Q: And the Male [1, 9]?
A: 3

Q: What about the “Und. (Undetermined)” value [1, 9] of the same compound?
A: 0

Q: What about the Female [1, 10] of the same compound?
A: 0

Q: What about the Male [1, 10] of the same compound?
A: 2

Q: And the “Und. (Undetermined)” value [1, 10]?
A: 0

Q: What about the Female [1, 11] of the same compound?
A: 0

Q: What about the Male [1, 11] of the same compound?
A: 0

Q: And the “Und. (Undetermined)” value [1, 11]?
A: 0

Q: What about the Female [1, 12] of the same compound?
A: 0

Q: And the Male [1, 12]?
A: 3

Q: And the “Und. (Undetermined)” value [1, 12]?
A: 1

Q: And the Female [1, 13]?
A: 0

Q: What about the Male [1, 13] of the same compound?
A: 4

Q: What about the “Und. (Undetermined)” value [1, 13] of the same compound?
A: 0

Q: And the Female [1, 14]?
A: 0

Q: And the Male [1, 14]?
A: 4

Q: What about the “Und. (Undetermined)” value [1, 14] of the same compound?
A: 1

Q: What about the Female [1, 15] of the same compound?
A: 0

Q: What about the Male [1, 15] of the same compound?
A: 5

Q: And the “Und. (Undetermined)” value [1, 15]?
A: 0

Q: And the “Survived day 14” value ([1]; Experiment 1, 20 µg injected on day 5, 4 injected)?
A: 2

Q: And the “Survived day 14” value ([1]; Experiment 1, 100 µg injected on day 5, 4 injected)?
A: 3

Q: And the “Survived day 14” value ([1]; Experiment 1, 2 mg injected on day 5, 4 injected)?
A: 2

Q: And the “Survived day 14” value ([1]; Experiment 1, 10 mg injected on day 5, 4 injected)?
A: 0

Q: What about the “Survived day 14” value ([1]; Experiment 2, 100 µg injected on day 4, 5 injected) of the same compound?
A: 4

Q: What about the “Survived day 14” value ([1]; Experiment 2, 1 mg injected on day 4, 6 injected) of the same compound?
A: 4

Q: What about the “Survived day 14” value ([1]; Experiment 3, 100 µg injected on day 5, 7 injected) of the same compound?
A: 5

Q: And the “Survived day 14” value ([1]; Experiment 3, 1 mg injected on day 5, 7 injected)?
A: 5

Q: What about the “vent sexed as males” value [2] of the same compound?
A: all birds

Q: What about the survival (in vivo; 0.01 mg, 10 µg injected on day 5) of the same compound?
A: 72%

Q: And the survival (in vivo; 0.05 mg, 50 µg injected on day 0)?
A: 40%

Q: And the survival (in vivo; 0.05 mg, 50 µg injected on day 5)?
A: 67%

Q: What about the survival (in vivo; 0.1 mg, 100 µg injected on day 5) of the same compound?
A: 69%

Q: And the Female ([3]; 10 µg injected on day 5)?
A: 36

Q: What about the Male ([3]; 10 µg injected on day 5) of the same compound?
A: 60

Q: And the Female ([3]; 50 µg injected on day 0)?
A: 2

Q: And the Male ([3]; 50 µg injected on day 0)?
A: 45

Q: And the Female ([3]; 50 µg injected on day 5)?
A: 0

Q: And the Male ([3]; 50 µg injected on day 5)?
A: 88

Q: What about the Female ([3]; 100 µg injected on day 5) of the same compound?
A: 0

Q: What about the Male ([3]; 100 µg injected on day 5) of the same compound?
A: 91

Q: And the “phenotype of unhatched embryos” value (turkey embryos; 1 mg, 2 pipped embryos and 2 embryos that died after 25 and 27 days of incubation)?
A: All embryos were phenotypic male

Q: What about the “vent sexed as male” value (turkey embryos; 1 mg, of 4 hatched birds, 2 feather-sexed as female and 2 as male) of the same compound?
A: 4

Q: What about the birds hatched (turkey embryos; eggs inoculated with 1 mg, day 4 or 5 of incubation) of the same compound?
A: Four

Q: And the “abdominal fat of treated females” value ([4]; 31 week old, abdominal cavities opened, compared with control females)?
A: absence of abdominal fat

Q: And the “treated females developed a male phenotype” value ([4]; Sex-Sal autosexing strain, injected day 4 or 5, at sexual maturity)?
A: one of two

Q: What about the “appearance and behavior of treated females” value ([4]; by seven months of age, injected day 4 or 5) of the same compound?
A: obviously masculine in appearance and behavior

Q: What about the “adult females developed male phenotypes” value ([4]; hybrids used in Example 3, injected day 4 or 5, at sexual maturity) of the same compound?
A: three of four

Q: And the “presence of testes in treated females” value ([4]; two gonads without oviducts, at necropsy)?
A: three of the four

Q: And the “serum hormone profiles of treated females” value ([5]; 31 week old)?
A: resembling adult males

Q: And the Estradiol ([5]; animal 1976, treated genetic female that did not respond, phenotypically female)?
A: 57 ng/mL

Q: And the Estradiol [5, 16]?
A: 12 ng/mL

Q: And the Testosterone [5, 16]?
A: 224 ng/mL

Q: What about the Estradiol [5, 17] of the same compound?
A: 5 ng/mL

Q: And the Testosterone [5, 17]?
A: 412 ng/mL

Q: What about the Estradiol [5, 18] of the same compound?
A: 2 ng/mL

Q: What about the Testosterone [5, 18] of the same compound?
A: 109 ng/mL

Q: And the “seminiferous tubules in gonads of treated females” value [6]?
A: present in both the left and right gonads

Q: With `O=C(c1ccc(OCCN2CCCC2)cc1)c1c(-c2ccc(O)cc2)sc2cc(O)ccc12` [LY117018] as the compound, how does the “effect on the female Mullerian ducts” value (female Mullerian ducts) read?
A: little effect

Q: With `C#C[C@]1(O)CC[C@H]2[C@@H]3CCC4=CC(=O)CC[C@@H]4[C@H]3CC[C@@]21C` [norethindrone] as the compound, how does the “effect on the female Mullerian ducts” value (female Mullerian ducts) read?
A: partial regression of the upper end of the left Mullerian duct as well as complete loss of the lower ends of both ducts

Q: Which results are given for `C[C@]12C=CC(=O)C=C1C=C[C@@H]1[C@@H]2CC[C@]2(C)C(=O)CC[C@@H]12` [1,4,6-androstatriene-3,17-dione]?
A: birds being males ([7]; 2 mg injected on day 5, gonads at day 14): 100%; Female [7, 19]: 0; Male [7, 19]: 5; Survived day 14 ([7]; number of embryos, 2.0 mg in 1,2-propane-diol injected on day 5): 5
